In patent US8293781B2, “Indole derivatives having cPLA2 inhibiting activity and applications and production methods of the same” (Daiichi Sankyo Company, Limited, priority 2007, dated 2012) one finds IC50 data, which are given here for 23 molecules.

The target in this experiment is T1, cPLA2 crudely purified from the cytoplasm fraction of U937 (Homo sapiens, UniProt P47712).
T1 construct: cPLA2 crudely purified from the cytoplasm fraction of U937; endogenous in cells; host or cells: U937 cells (cytoplasm fraction, crude purification)
T1 sequence (P47712 1-749): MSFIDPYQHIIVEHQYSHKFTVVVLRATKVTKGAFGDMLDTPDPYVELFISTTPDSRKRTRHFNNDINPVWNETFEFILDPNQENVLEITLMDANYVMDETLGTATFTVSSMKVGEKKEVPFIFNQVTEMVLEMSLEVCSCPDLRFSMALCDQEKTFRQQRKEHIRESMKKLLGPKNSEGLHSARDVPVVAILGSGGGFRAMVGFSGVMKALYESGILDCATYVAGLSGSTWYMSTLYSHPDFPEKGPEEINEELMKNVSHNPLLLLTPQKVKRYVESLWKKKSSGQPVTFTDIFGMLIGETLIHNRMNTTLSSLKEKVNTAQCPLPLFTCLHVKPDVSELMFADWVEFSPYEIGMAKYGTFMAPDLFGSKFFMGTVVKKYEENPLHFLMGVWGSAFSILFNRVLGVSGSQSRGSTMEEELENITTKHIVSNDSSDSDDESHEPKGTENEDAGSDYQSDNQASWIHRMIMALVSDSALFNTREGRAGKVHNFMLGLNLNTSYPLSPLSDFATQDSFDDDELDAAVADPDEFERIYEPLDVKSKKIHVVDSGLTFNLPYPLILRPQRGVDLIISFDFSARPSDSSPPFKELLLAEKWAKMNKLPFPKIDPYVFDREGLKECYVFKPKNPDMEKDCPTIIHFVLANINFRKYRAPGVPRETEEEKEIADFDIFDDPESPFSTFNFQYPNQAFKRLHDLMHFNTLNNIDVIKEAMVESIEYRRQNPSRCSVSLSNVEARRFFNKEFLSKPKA
As to the kind of experiment: Measurement of cPLA2 inhibitory activity (release of [14C]-arachidonic acid from phosphatidyl choline liposome). The class given is biochemical. The conditions noted are these: cPLA2 from U937 cytoplasm fraction, [14C]arachidonyl-phosphatidyl choline liposome, 37° C., 60 minutes; read-out: cPLA2 inhibitory activity, 50% inhibiting concentration IC50. The procedure, abridged:
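The read-out is radioactivity from extracted [14C]-arachidonic acid, freed over 60 min at 37° C from liposomes of 14C-arachidonyl phosphatidylcholine (10 μM PC in the added solution). Buffer was 50 mM HEPES pH 7.5 with Ca2+, DTT, NaCl and BSA. IC50 was derived from inhibition relative to enzyme control minus no-enzyme control.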

Where a name gives a salt, the structure may show the parent alone. Some results are limits rather than exact numbers.

Turning to `CC(O)c1ccc(-n2cc(CCc3ccccn3)c3cc(CCC(=O)O)ccc32)cc1` (centres unmarked) [Example 304, 3-{1-[4-(1-hydroxyethyl)phenyl]-3-(2-pyridin-2-ylethyl)-1H-indol-5-yl}propanoic acid hydrochloride], the IC50 is over 3 µM.

For the molecule `O=C(O)CCc1ccc2c(c1)c(CCc1ccccc1)cn2-c1ccc(CN2CCCC2)cc1` [Example 306, 3-{3-(2-phenylethyl)-1-[4-(pyrrolidin-1-ylmethyl)phenyl]-1H-indol-5-yl}propanoic acid], the IC50 was found to be 0.871 µM.

As to `O=C(O)CCc1ccc2c(c1)c(CCc1ccccc1)cn2-c1ccc(CN2CCOCC2)cc1` [Example 308, 3-{1-[4-(morpholin-4-ylmethyl)phenyl]-3-(2-phenylethyl)-1H-indol-5-yl}propanoic acid], the IC50 worked out at 0.149 µM. With `CN(C)C(=O)c1ccc(-n2cc(CCc3ccccc3)c3cc(CCC(=O)O)ccc32)cc1` [Example 310, 3-[1-{4-[(dimethylamino)carbonyl]phenyl}-3-(2-phenylethyl)-1H-indol-5-yl]propanoic acid], the IC50 worked out at 0.354 µM.

Turning to `O=C(O)CCc1ccc2c(c1)c(CCc1ccccc1)cn2-c1ccc(C(=O)N2CCOCC2)cc1` [Example 312, 3-{1-[4-(morpholin-4-ylcarbonyl)phenyl]-3-(2-phenylethyl)-1H-indol-5-yl}propanoic acid], the IC50 was 0.404 µM. In the case of `CN(C)C(=O)c1cccc(-n2cc(CCc3ccccc3)c3cc(CCC(=O)O)ccc32)c1` [Example 314, 3-{1-[3-(dimethylcarbamoyl)phenyl]-3-(2-phenylethyl)-1H-indol-5-yl}propanoic acid] it was over 3 µM; in that of `O=C(O)CCc1ccc2c(c1)c(CCc1ccccc1)cn2-c1cccc(C(=O)N2CCOCC2)c1` [Example 316, 3-{1-[3-(morpholin-4-ylcarbonyl)phenyl]-3-(2-phenylethyl)-1H-indol-5-yl}propanoic acid], over 3 µM; in that of `CN(C)S(=O)(=O)c1ccc(-n2cc(CCc3ccccc3)c3cc(CCC(=O)O)ccc32)cc1` [Example 318, 3-[1-{4-[(dimethylamino)sulfonyl]phenyl}-3-(2-phenylethyl)-1H-indol-5-yl]propanoic acid], 0.271 µM. For the molecule `O=C(O)CCc1ccc2c(c1)c(CCc1ccccc1)cn2-c1ccc(S(=O)(=O)N2CCOCC2)cc1` [Example 320, 3-{1-[4-(morpholin-4-ylsulfonyl)phenyl]-3-(2-phenylethyl)-1H-indol-5-yl}propanoic acid], the IC50 turned out to be 0.258 µM. In the case of `CN(C)S(=O)(=O)c1cccc(-n2cc(CCc3ccccc3)c3cc(CCC(=O)O)ccc32)c1` [Example 322, 3-[1-{3-[(dimethylamino)sulfonyl]phenyl}-3-(2-phenylethyl)-1H-indol-5-yl]propanoic acid] it was 1.91 µM. With `O=C(O)CCc1ccc2c(c1)c(CCc1ccccc1)cn2-c1cccc(S(=O)(=O)N2CCOCC2)c1` [Example 324, 3-{1-[3-(morpholin-4-ylsulfonyl)phenyl]-3-(2-phenylethyl)-1H-indol-5-yl}propanoic acid], the IC50 was 1.63 µM. Under `CS(=O)(=O)c1ccc(-n2cc(CCc3ccccc3)c3cc(CCC(=O)O)ccc32)cc1` [Example 326, 3-{1-[4-(methylsulfonyl)phenyl]-3-(2-phenylethyl)-1H-indol-5-yl}propanoic acid] stands 0.486 µM. Under `O=C(O)CCc1ccc2c(c1)c(CCc1ccccc1)cn2-c1ccc(OCCCO)cc1` [Example 328, 3-{1-[4-(3-hydroxypropoxy)phenyl]-3-(2-phenylethyl)-1H-indol-5-yl}propanoic acid 2-amino-2-(hydroxymethyl)propane-1,3-diol salt (1:1)] stands 0.057 µM. On to `O=C(CCc1ccc2c(c1)c(CCc1ccccc1)cn2-c1ccc(OC(F)F)cc1)C(F)(F)F` [Example 329, 4-{1-[4-(difluoromethoxy)phenyl]-3-(2-phenylethyl)-1H-indol-5-yl}-1,1,1-trifluorobutan-2-one], for which the IC50 worked out at 0.318 µM. For `O=C(CCc1ccc2c(c1)c(CCc1ccccc1)cn2-c1ccc(Oc2ccccc2)cc1)C(F)(F)F` [Example 330, 1,1,1-trifluoro-4-[1-(4-phenoxyphenyl)-3-(2-phenylethyl)-1H-indol-5-yl]butan-2-one], the IC50 came out at 0.726 µM. In the case of `CS(=O)(=O)NC(=O)CCc1ccc2c(c1)c(CCc1ccccc1)cn2-c1ccc(Oc2ccccc2)cc1` [Example 331, N-(methylsulfonyl)-3-[1-(4-phenoxyphenyl)-3-(2-phenylethyl)-1H-indol-5-yl]propanamide] it was over 3 µM.

For the molecule `O=C(CCc1ccc2c(c1)c(CCc1ccccc1)cn2-c1ccc(OC(F)F)cc1)NS(=O)(=O)c1ccccc1` [Example 332, 3-{1-[4-(difluoromethoxy)phenyl]-3-(2-phenylethyl)-1H-indol-5-yl}-N-(phenylsulfonyl)propanamide], the IC50 is over 3 µM. Under `Cc1ccc(S(=O)(=O)NC(=O)CCc2ccc3c(c2)c(CCc2ccccc2)cn3-c2ccc(Oc3ccccc3)cc2)cc1` [Example 333] stands over 3 µM; under `CSc1ccc(-n2cc(CCc3ccccc3)c3cc(CCC(=O)O)ccc32)cc1` [Example 334, 3-[1-(4-methylthiophenyl)-3-(2-phenylethyl)-1H-indol-5-yl]propanoic acid], 0.011 µM. Under `O=C(O)CCc1ccc2c(c1)c(CCc1ccccc1)cn2-c1ccc(SCc2ccccc2)cc1` [Example 335, 3-[1-(4-benzylthiophenyl)-3-(2-phenylethyl)-1H-indol-5-yl]propanoic acid] stands 0.009 µM; under `O=C(O)CCc1ccc2c(c1)c(CCCc1ccccc1)cn2-c1ccc(OCc2ccccc2)cc1` [Example 339, 3-{1-[4-(benzyloxy)phenyl]-3-(3-phenylpropyl)-1H-indol-5-yl}propanoic acid], 0.46 µM.

With `O=C(O)CCc1ccc2c(c1)c(CCCc1ccccc1)cn2-c1ccc(O)cc1` [Example 340, 3-[1-(4-hydroxyphenyl)-3-(3-phenylpropyl)-1H-indol-5-yl]propanoic acid], the IC50 came to 0.568 µM. For the molecule `O=C(O)CCc1ccc2c(c1)c(CCc1ccccc1)cn2-c1ccc(OCCOCc2ccccc2)cc1` [Example 342, 3-[1-{4-[2-(benzyloxy)ethoxy]phenyl}-3-(2-phenylethyl)-1H-indol-5-yl]propanoic acid], the IC50 came out at 0.002 µM.
